These results are taken from PMC9657696, “Novel BH4-BCL-2 Domain Antagonists Induce BCL-2-Mediated Apoptosis in Triple-Negative Breast Cancer” (Cancers, 2022).

pIC50: −log10 of the molar value. Where two headings read alike, the source gives them in different places.

In one assay the test system is MDA-MB-231 xenografts. Description: MDA-MB-231 xenograft in athymic mice. Format: in vivo. As for the experimental part:
Mice were sheltered in the animal facility of Sri Ramachandra Medical College and Research Institute (Chennai, India), which has been certified as a pathogen-free animal house for performing mice experiments. All the methods were carried out according to the IAEC guidelines and regulations. Experimental procedures were framed and approved by the Institutional Animal Ethical Committee (IAEC) (IAEC approval number: IAEC/57/SRIHER/639/2019). The entire study was in accordance with the ARRIVE guidelines to ensure the safety of the animals. The sizes of the mice groups were chosen in accordance with statistical significance; the measurements and analysis were performed in an unbiased manner.
4–6 week-old female athymic mice were transplanted with MDA-MB-231 triple-negative breast tumor cells. The growth media with MDA-MB-231 cells and Matrigel (BD Biosciences) at a 1:1 ratio was mixed and injected into mice. The tumor lengths and widths were measured with an electronic caliper 2–3 times a week. The tumor volume was calculated using the formula: (length × width^2)/2. All of the mice were randomized after 10 days, as the tumor volume reached approximately 80–90 mm^3. A total of 25 mice were sorted into 5 treatment groups, followed by a compound treatment (SM216, SM396, SM949, and ABT199) or vehicle (n = 5 for each group). The drug compounds were formulated in PBS and administrated as i.p doses (100 mg/Kg w) for two schedules per week. Tumor growth inhibition (TGImax) was calculated using the following equation: (1) Tumor Growth Inhibition =1−mean of volume of treated at day x−mean of volume treated at day 0/mean of volume of control at day x−mean of volume of control at day 0×100
As the tumor size exceeded 600 mm^3, we euthanized the mice for ethical reasons. The euthanasia procedure used was carbon dioxide asphyxiation followed by cervical dislocation. The mean of the tumor volume ± SEM for different time points was represented until we sacrificed at least one mouse in a group.
To test the in vivo anti-cancer efficacy of the novel small molecules viz. SM216, SM396, and SM949, 4–6 weeks old female athymic mice were xenografted with MDA-MB-231 cells on the mammary fat pads and palpable tumors were induced. […] Tumor volumes were measured at regular intervals and the data were tabulated. […] The growth kinetics and maximal tumor growth inhibition (TGImax) are depicted as tumor volumes (five groups of mice treated with different drugs) in Figure 6e,f. The average tumor volume for all groups on day 0 of treatment was 92.77 mm^3. We observed that all three lead molecules inhibited tumor growth efficiently compared to the vehicle control. […] These compounds achieved regression of 60% after 20 days of treatment. […] Moreover, these compounds were well tolerated with no weight loss and hemolysis in all treatment groups. The survival was 100% for all treatment mice groups until the termination of the study. […] A decrease in the expression of PCNA was observed upon treatment with SM396 compared to the vehicle control.

A further assay deals with BT549 cells. Description: MTT cell viability assay, BT549. Format: cell-based. To be noted: Homo sapiens. The procedure: An MTT (3-(4,5-dimethylthiazol-2-yl)-2,5-diphenyltetrazolium bromide)-based colorimetric assay was performed to measure the cell viability. On a 96-well plate, cells were seeded at a density of 3000–5000 cells/well. The cell number for the assay was decided based on the exponential growth of untreated cells. The cells were treated with compounds for 72 h followed by incubation with MTT for 4 h at 37 °C. The formazan crystals were dissolved in DMSO and absorbance was measured at 540 nm. The percentage viability was calculated as % cell viability = (OD treated cells/OD control cells) × 100, and the IC50 was estimated by curve-fitting using the non-linear regression of a dose–response curve. The experiments were repeated at least two to three times.
The top 29 lead molecules, guided by the in silico results, were subjected to further in vitro validation by assessing the cellular cytotoxicity in both cancer (Figure 3a) and normal cell lines (Supplementary Figure S2a) using the MTT assay. Moreover, we performed MTT (Supplementary Figure S3c) and Annexin V assays on an additional cell line, BT549, a triple-negative breast cancer model, to validate the activity of the compounds (Supplementary Figure S4). […] We also provided the AUC plots for the top three compounds for a better understanding of the activity (Supplementary Figure S5). […]
On the technique in general: Formazan colour is commonly taken as a measure of viable cells.

Consider `CC1(C)CCC(CN2CCN(c3ccc(C(=O)NS(=O)(=O)c4ccc(NCC5CCOCC5)c([N+](=O)[O-])c4)c(Oc4cnc5[nH]ccc5c4)c3)CC2)=C(c2ccc(Cl)cc2)C1` [ABT-199, venetoclax], for which the “Tumor Volume, Mean” value with MDA-MB-231 xenografts (Day 0, i.p. 100 mg/kg, two schedules per week) was determined as 95.35 mm^3; with MDA-MB-231 xenografts (Day 6, i.p. 100 mg/kg), 162.15 mm^3; in the assay with MDA-MB-231 xenografts (Day 9, i.p. 100 mg/kg (column head printed SEM)), 313.94 mm^3; in the assay on MDA-MB-231 xenografts (Day 13, i.p. 100 mg/kg) it was 313.03 mm^3; in the assay with MDA-MB-231 xenografts (Day 15, upon 4 doses, i.p. 100 mg/kg), 371.94 mm^3; with MDA-MB-231 xenografts (Day 17, i.p. 100 mg/kg), 424.83 mm^3. The “Tumor Volume, Mean” value in the assay on MDA-MB-231 xenografts (Day 20, i.p. 100 mg/kg) stood at 382.6 mm^3. For the same compound, the pIC50 (in general, −log10 of the IC50, conventionally taken in molar units) in the assay with BT549 cells (BT-549, Supplementary Figure S3c legend, read-out: IC50 (dose-response curve fitting)) is 5.14; with BT549 cells (BT-549, read-out: IC50 (non-linear regression of dose-response curves)), 5.14.
